In the supplement of paper PMC10307832:

What was measured:
Experiment in all cases: relative viability (nuclei count vs DMSO), 5 days (fraction); higher = more cells survive
HCC-366 = system: HCC-366
Procedure, shortened: (§1)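 Lung cancer cell lines in 1536-well plates got either a single drug or a fixed anchor-drug dose together with five library-drug doses (not always all listed) in √10 steps, by pin tool, on the day after seeding. Nuclei were counted after 5 days, and relative viability is the treated-to-vehicle ratio of nuclei counts. Values are medians of duplicate plates.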

NCI-H647 = system: NCI-H647
Procedure, shortened: as §1

NCI-H2170 = system: NCI-H2170
Procedure, shortened: as §1

HARA = system: HARA
Procedure, shortened: as §1

LOU-NH91 = system: LOU-NH91
Procedure, shortened: as §1

NCI-H1792 = system: NCI-H1792
Procedure, shortened: as §1

NCI-H1355 = system: NCI-H1355
Procedure, shortened: as §1

NCI-H1437 = system: NCI-H1437
Procedure, shortened: as §1

NCI-H1734 = system: NCI-H1734
Procedure, shortened: as §1

BEN = system: BEN
Procedure, shortened: as §1

NCI-H2405 = system: NCI-H2405
Procedure, shortened: as §1

NCI-H1993 = system: NCI-H1993
Procedure, shortened: as §1

HCC-827 = system: HCC-827
Procedure, shortened: as §1

NCI-H2342 = system: NCI-H2342
Procedure, shortened: as §1

NCI-H1395 = system: NCI-H1395
Procedure, shortened: as §1

NCI-H661 = system: NCI-H661
Procedure, shortened: as §1

NCI-H2087 = system: NCI-H2087
Procedure, shortened: as §1

EKVX = system: EKVX
Procedure, shortened: as §1

NCI-H522 = system: NCI-H522
Procedure, shortened: as §1

SK-MES-1 = system: SK-MES-1
Procedure, shortened: as §1

NCI-H2009 = system: NCI-H2009
Procedure, shortened: as §1

SK-LU-1 = system: SK-LU-1
Procedure, shortened: as §1

O=c1cc(N2CCOCC2)oc2c(-c3cccc4c3sc3ccccc34)cccc12 + Cc1nc(Nc2ncc(C(=O)Nc3c(C)cccc3Cl)s2)cc(N2CCN(CCO)CC2)n1 [Dasatinib] (partner 0.075 µM)
relative viability (HCC-366; first compound 0.01 µM): 0.672
relative viability (HCC-366; first compound 0.03162 µM): 0.69
relative viability (HCC-366; first compound 0.1 µM): 0.725
relative viability (HCC-366; first compound 0.3162 µM): 0.601
relative viability (HCC-366; first compound 1 µM): 0.618
relative viability (NCI-H647; first compound 0.01 µM): 0.239
relative viability (NCI-H647; first compound 0.03162 µM): 0.18
relative viability (NCI-H647; first compound 0.1 µM): 0.0909
relative viability (NCI-H647; first compound 0.3162 µM): 0.224
relative viability (NCI-H647; first compound 1 µM): 0.211
relative viability (NCI-H2170; first compound 0.01 µM): 0.574
relative viability (NCI-H2170; first compound 0.03162 µM): 0.569
relative viability (NCI-H2170; first compound 0.1 µM): 0.728
relative viability (NCI-H2170; first compound 0.3162 µM): 0.557
relative viability (NCI-H2170; first compound 1 µM): 0.621
relative viability (HARA; first compound 0.01 µM): 0.208
relative viability (HARA; first compound 0.03162 µM): 0.282
relative viability (HARA; first compound 0.1 µM): 0.276
relative viability (HARA; first compound 0.3162 µM): 0.268
relative viability (HARA; first compound 1 µM): 0.243
relative viability (LOU-NH91; first compound 0.01 µM): 0.546
relative viability (LOU-NH91; first compound 0.03162 µM): 0.55
relative viability (LOU-NH91; first compound 0.1 µM): 0.537
relative viability (LOU-NH91; first compound 0.3162 µM): 0.584
relative viability (LOU-NH91; first compound 1 µM): 0.563
relative viability (NCI-H1792; first compound 0.01 µM): 0.857
relative viability (NCI-H1792; first compound 0.03162 µM): 0.663
relative viability (NCI-H1792; first compound 0.1 µM): 0.856
relative viability (NCI-H1792; first compound 0.3162 µM): 0.996
relative viability (NCI-H1792; first compound 1 µM): 0.788
relative viability (NCI-H1355; first compound 0.01 µM): 0.789
relative viability (NCI-H1355; first compound 0.03162 µM): 0.692
relative viability (NCI-H1355; first compound 0.1 µM): 0.695
relative viability (NCI-H1355; first compound 0.3162 µM): 0.731
relative viability (NCI-H1355; first compound 1 µM): 0.682
relative viability (NCI-H1437; first compound 0.01 µM): 0.337
relative viability (NCI-H1437; first compound 0.03162 µM): 0.329
relative viability (NCI-H1437; first compound 0.1 µM): 0.492
relative viability (NCI-H1437; first compound 0.3162 µM): 0.509
relative viability (NCI-H1437; first compound 1 µM): 0.344
relative viability (NCI-H1734; first compound 0.01 µM): 0.498
relative viability (NCI-H1734; first compound 0.03162 µM): 0.517
relative viability (NCI-H1734; first compound 0.1 µM): 0.49
relative viability (NCI-H1734; first compound 0.3162 µM): 0.439
relative viability (NCI-H1734; first compound 1 µM): 0.415
relative viability (BEN; first compound 0.01 µM): 0.317
relative viability (BEN; first compound 0.03162 µM): 0.362
relative viability (BEN; first compound 0.1 µM): 0.3
relative viability (BEN; first compound 0.3162 µM): 0.354
relative viability (BEN; first compound 1 µM): 0.266
relative viability (NCI-H2405; first compound 0.01 µM): 0.188
relative viability (NCI-H2405; first compound 0.03162 µM): 0.224
relative viability (NCI-H2405; first compound 0.1 µM): 0.201
relative viability (NCI-H2405; first compound 0.3162 µM): 0.238
relative viability (NCI-H2405; first compound 1 µM): 0.196
relative viability (NCI-H1993; first compound 0.01 µM): 0.603
relative viability (NCI-H1993; first compound 0.03162 µM): 0.595
relative viability (NCI-H1993; first compound 0.1 µM): 0.657
relative viability (NCI-H1993; first compound 0.3162 µM): 0.554
relative viability (NCI-H1993; first compound 1 µM): 0.597
relative viability (HCC-827; first compound 0.01 µM): 0.338
relative viability (HCC-827; first compound 0.03162 µM): 0.293
relative viability (HCC-827; first compound 0.1 µM): 0.323
relative viability (HCC-827; first compound 0.3162 µM): 0.283
relative viability (HCC-827; first compound 1 µM): 0.328
relative viability (NCI-H2342; first compound 0.01 µM): 0.352
relative viability (NCI-H2342; first compound 0.03162 µM): 0.307
relative viability (NCI-H2342; first compound 0.1 µM): 0.332
relative viability (NCI-H2342; first compound 0.3162 µM): 0.322
relative viability (NCI-H2342; first compound 1 µM): 0.325
relative viability (NCI-H1395; first compound 0.01 µM): 0.422
relative viability (NCI-H1395; first compound 0.03162 µM): 0.393
relative viability (NCI-H1395; first compound 0.1 µM): 0.407
relative viability (NCI-H1395; first compound 0.3162 µM): 0.367
relative viability (NCI-H1395; first compound 1 µM): 0.454
relative viability (NCI-H661; first compound 0.01 µM): 0.764
relative viability (NCI-H661; first compound 0.03162 µM): 0.869
relative viability (NCI-H661; first compound 0.1 µM): 0.889
relative viability (NCI-H661; first compound 0.3162 µM): 0.993
relative viability (NCI-H661; first compound 1 µM): 0.842
relative viability (NCI-H2087; first compound 0.01 µM): 0.989
relative viability (NCI-H2087; first compound 0.03162 µM): 1.02
relative viability (NCI-H2087; first compound 0.1 µM): 0.917
relative viability (NCI-H2087; first compound 0.3162 µM): 0.89
relative viability (NCI-H2087; first compound 1 µM): 0.887
relative viability (EKVX; first compound 0.01 µM): 0.528
relative viability (EKVX; first compound 0.03162 µM): 0.469
relative viability (EKVX; first compound 0.1 µM): 0.672
relative viability (EKVX; first compound 0.3162 µM): 0.607
relative viability (EKVX; first compound 1 µM): 0.605
relative viability (NCI-H522; first compound 0.01 µM): 1.01
relative viability (NCI-H522; first compound 0.03162 µM): 0.915
relative viability (NCI-H522; first compound 0.1 µM): 0.797
relative viability (NCI-H522; first compound 0.3162 µM): 0.859
relative viability (NCI-H522; first compound 1 µM): 0.745
relative viability (SK-MES-1; first compound 0.01 µM): 0.413
relative viability (SK-MES-1; first compound 0.03162 µM): 0.363
relative viability (SK-MES-1; first compound 0.1 µM): 0.349
relative viability (SK-MES-1; first compound 0.3162 µM): 0.447
relative viability (SK-MES-1; first compound 1 µM): 0.337
relative viability (NCI-H2009; first compound 0.01 µM): 0.317
relative viability (NCI-H2009; first compound 0.03162 µM): 0.268
relative viability (NCI-H2009; first compound 0.1 µM): 0.303
relative viability (NCI-H2009; first compound 0.3162 µM): 0.277
relative viability (NCI-H2009; first compound 1 µM): 0.256
relative viability (SK-LU-1; first compound 0.01 µM): 0.173
relative viability (SK-LU-1; first compound 0.03162 µM): 0.175
relative viability (SK-LU-1; first compound 0.1 µM): 0.166
relative viability (SK-LU-1; first compound 0.3162 µM): 0.195
relative viability (SK-LU-1; first compound 1 µM): 0.181
